Results from the supplement of paper PMC10307832.

Each cell line was assayed with COC1=CC=C(C=C1)COC2=C(C=C(C=C2)CC3=CN=C(N=C3N)N)OC [GW-2580] + C[C@@H](Oc1cc(-c2cnn(C3CCNCC3)c2)cnc1N)c1c(Cl)ccc(F)c1Cl [Crizotinib] (partner 1 µM) (assay: relative viability (nuclei count vs DMSO), 5 days (fraction); higher = more cells survive). Conditions: first compound 0.08 µM.
Outline: (§1)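 Medians of duplicate plates are given as relative viability. That measure is the nuclei count in treated wells divided by the count in vehicle wells. Counts were taken on 4× images of lung cancer cell lines in 1536-well plates, 5 days after pin-tool dosing the day after seeding with one drug alone or a fixed anchor-drug dose plus five library-drug doses (not always all listed) in √10 steps.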

Cell Line	relative viability
NCI-H727	0.85
NCI-H1650	1.06
EBC-1	0.205
NCI-H1703	0.752
NCI-H1993	0.971
SW 1573	0.73
NCI-H838	0.946
LCLC-103H	1.02
NCI-H520	0.791
NCI-H2126	1.06
EMC-BAC-2	0.779
NCI-H2085	0.903
Calu-6	0.85
HCC-366	0.618
NCI-H1666	1.01
NCI-H596	0.966
LK-2	0.22

Cell Line	relative viability
NCI-H2087	0.8
SK-MES-1	1.01
H3255	0.837
COR-L23	0.808
COR-L 105	0.782
IA-LM	0.962
LOU-NH91	0.731
ChaGo-K-1	1.08
NCI-H2170	1.23
NCI-H2405	0.827
HOP-62	0.986
HCC-44	0.899
A549	0.722
LU99A	0.662
BEN	0.937
HCC-78	0.331
NCI-H1299	0.974

Same assay, conditions: first compound 0.8 µM

Cell Line	relative viability
NCI-H727	0.819
NCI-H1650	1.29
EBC-1	0.163
NCI-H1703	0.631
NCI-H1993	0.828
SW 1573	0.764
NCI-H838	0.904
LCLC-103H	1.1
NCI-H520	0.956
NCI-H2126	1.06
EMC-BAC-2	0.771
NCI-H2085	0.918
Calu-6	0.857
HCC-366	0.581
NCI-H1666	0.984
NCI-H596	0.985
LK-2	0.247

Cell Line	relative viability
NCI-H2087	0.993
SK-MES-1	1.04
H3255	0.963
COR-L23	0.684
COR-L 105	0.827
IA-LM	0.732
LOU-NH91	0.75
ChaGo-K-1	1.21
NCI-H2170	1.33
NCI-H2405	0.885
HOP-62	1.12
HCC-44	0.843
A549	0.878
LU99A	0.633
BEN	1
HCC-78	0.384
NCI-H1299	0.984

Same assay, conditions: first compound 2.53 µM

Cell Line	relative viability
NCI-H727	0.79
NCI-H1650	1.36
EBC-1	0.19
NCI-H1703	0.714
SW 1573	0.803
NCI-H838	0.779
LCLC-103H	1.08
NCI-H520	0.763
NCI-H2126	1.01
EMC-BAC-2	0.75
NCI-H2085	0.779
Calu-6	0.769
HCC-366	0.334
NCI-H1666	1.17
NCI-H596	0.912
LK-2	0.218
NCI-H2087	1

Cell Line	relative viability
SK-MES-1	0.871
H3255	0.744
COR-L23	0.549
COR-L 105	0.787
IA-LM	1.02
LOU-NH91	0.753
ChaGo-K-1	1.18
NCI-H2170	1.22
NCI-H2405	0.753
HOP-62	0.926
HCC-44	0.751
A549	0.737
LU99A	0.524
BEN	0.785
HCC-78	0.287
NCI-H1299	0.972

Same assay, conditions: first compound 8 µM

Cell Line	relative viability
NCI-H727	0.5
NCI-H1650	0.919
EBC-1	0.164
NCI-H1703	0.647
NCI-H1993	0.936
SW 1573	0.643
NCI-H838	0.8
LCLC-103H	1.02
NCI-H520	0.621
NCI-H2126	1.04
EMC-BAC-2	0.803
NCI-H2085	0.758
Calu-6	0.674
HCC-366	0.509
NCI-H1666	0.926
NCI-H596	1.15
LK-2	0.208

Cell Line	relative viability
NCI-H2087	0.772
SK-MES-1	1
H3255	0.914
COR-L23	0.562
COR-L 105	0.677
IA-LM	0.836
LOU-NH91	0.728
ChaGo-K-1	1.07
NCI-H2170	1.36
NCI-H2405	0.78
HOP-62	0.98
HCC-44	0.839
A549	0.543
LU99A	0.535
BEN	0.958
HCC-78	0.297
NCI-H1299	0.892

What follows are cell lines tested with COC1=CC=C(C=C1)COC2=C(C=C(C=C2)CC3=CN=C(N=C3N)N)OC [GW-2580] + C[C@]1(O)C[C@@H](c2nc(-c3ccc4ccc(-c5ccccc5)nc4c3)c3c(N)nccn32)C1 [Linsitinib] (partner 1 µM) in the same assay as above. Conditions: first compound 0.08 µM.
Outline: as §1

Cell Line	relative viability
NCI-H727	0.241
EBC-1	1.27
NCI-H1703	0.879
NCI-H1993	0.757
SW 1573	0.744
NCI-H838	1.14
LCLC-103H	1.07
NCI-H520	1.03
NCI-H2126	0.739
EMC-BAC-2	0.839
NCI-H2085	0.818
Calu-6	1.11
HCC-366	0.51
NCI-H1666	0.765
NCI-H596	1.22
LK-2	0.558
NCI-H2087	1.08

Cell Line	relative viability
SK-MES-1	1.12
H3255	0.98
COR-L23	0.987
COR-L 105	1.03
IA-LM	0.693
LOU-NH91	0.956
NCI-H2405	0.979
HOP-62	1.05
HCC-44	0.736
A549	0.678
LU99A	0.749
BEN	1.08
HCC-78	0.541
NCI-H1395	1.07
NCI-H1299	1.09
NCI-H1793	0.93

Same assay, conditions: first compound 0.8 µM

Cell Line	relative viability
NCI-H727	0.298
EBC-1	0.991
NCI-H1703	1.1
NCI-H1993	0.735
SW 1573	0.806
NCI-H838	1.19
LCLC-103H	1.45
NCI-H520	1.18
NCI-H2126	0.731
EMC-BAC-2	0.876
NCI-H2085	1.13
Calu-6	0.938
HCC-366	0.678
NCI-H1666	1.02
NCI-H596	1.08
LK-2	0.573
NCI-H2087	0.935

Cell Line	relative viability
SK-MES-1	1.14
H3255	1.03
COR-L23	1.2
COR-L 105	0.807
IA-LM	1.29
LOU-NH91	0.972
NCI-H2405	0.85
HOP-62	0.953
HCC-44	0.759
A549	0.701
LU99A	0.57
BEN	1.04
HCC-78	0.574
NCI-H1395	1.08
NCI-H1299	0.969
NCI-H1793	0.934

Same assay, conditions: first compound 2.53 µM

Cell Line	relative viability
NCI-H727	0.226
EBC-1	0.871
NCI-H1703	0.712
SW 1573	0.713
NCI-H838	1.01
LCLC-103H	1.08
NCI-H520	1.16
NCI-H2126	0.653
EMC-BAC-2	0.727
NCI-H2085	0.978
Calu-6	0.913
HCC-366	0.496
NCI-H1666	0.742
NCI-H596	1.07
LK-2	0.23
NCI-H2087	0.924

Cell Line	relative viability
SK-MES-1	1.01
H3255	1.08
COR-L23	0.946
COR-L 105	0.929
IA-LM	0.55
LOU-NH91	0.877
NCI-H2405	0.886
HOP-62	0.877
HCC-44	0.628
A549	0.501
LU99A	0.427
BEN	0.816
HCC-78	0.371
NCI-H1395	0.97
NCI-H1299	0.952
NCI-H1793	0.814

Same assay, conditions: first compound 8 µM

Cell Line	relative viability
NCI-H727	0.284
EBC-1	0.743
NCI-H1703	0.716
NCI-H1993	0.714
SW 1573	0.66
NCI-H838	1.06
LCLC-103H	1.09
NCI-H520	0.985
NCI-H2126	0.743
EMC-BAC-2	0.875
NCI-H2085	0.879
Calu-6	1.02
HCC-366	0.882
NCI-H1666	0.724
NCI-H596	1
LK-2	0.534
NCI-H2087	0.818

Cell Line	relative viability
SK-MES-1	1.09
H3255	0.796
COR-L23	1.02
COR-L 105	1.01
IA-LM	0.319
LOU-NH91	1.02
NCI-H2405	0.861
HOP-62	0.982
HCC-44	0.687
A549	0.602
LU99A	0.517
BEN	0.93
HCC-78	0.486
NCI-H1395	0.931
NCI-H1299	0.907
NCI-H1793	0.824

What follows are cell lines tested with COC1=CC=C(C=C1)COC2=C(C=C(C=C2)CC3=CN=C(N=C3N)N)OC [GW-2580] + Cc1nc(NC(=O)N2CCC[C@H]2C(N)=O)sc1-c1ccnc(C(C)(C)C(F)(F)F)c1 [Alpelisib] (partner 2 µM) in the same assay as above. Conditions: first compound 0.08 µM.
Outline: as §1

Cell Line	relative viability
NCI-H727	0.664
EBC-1	0.91
NCI-H1703	0.308
NCI-H1993	0.684
SW 1573	0.841
NCI-H838	1.01
LCLC-103H	0.928
NCI-H520	1.02
NCI-H2126	0.757
EMC-BAC-2	0.834
NCI-H2085	1.1
Calu-6	1.08
HCC-366	0.367
NCI-H1666	1.17
NCI-H596	0.486
LK-2	1.21
NCI-H2087	1.23

Cell Line	relative viability
SK-MES-1	1.15
H3255	0.659
COR-L23	0.856
COR-L 105	0.91
IA-LM	1.11
LOU-NH91	0.677
NCI-H2170	0.892
NCI-H2405	0.794
HOP-62	0.914
HCC-44	0.863
A549	0.723
LU99A	0.496
BEN	0.996
HCC-78	0.368
NCI-H1395	1.04
NCI-H1299	1.2
NCI-H1793	0.659
